Assay results as given in ChEMBL document CHEMBL1201862, “PubChem BioAssay data set” (2004).
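Cultured in 96-well plates, cells were exposed to test compound for 48 hours across five concentrations. GI50: concentration for 50% inhibition of growth.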 Active and inactive are the calls of the source. No stated cut-off is given here; in the data, active = GI50 up to about 1.1 µM and inactive = higher.

Assays:
Experiment in all cases: growth of human tumour cells (NCI), 48 h
KM12 = tested on: KM12
OVCAR-8 = tested on: OVCAR-8
RPMI-8226 = tested on: RPMI-8226
SF-539 = tested on: SF-539
OVCAR-4 = tested on: OVCAR-4
UACC-62 = tested on: UACC-62
HCT-116 = tested on: HCT-116
SN12C = tested on: SN12C
A549 = tested on: A549
HCC 2998 = tested on: HCC 2998
CAKI-1 = tested on: CAKI-1
NCI-H460 = tested on: NCI-H460
K562 = tested on: K562
HCT-15 = tested on: HCT-15
TK-10 = tested on: TK-10
HOP-92 = tested on: HOP-92
DU-145 = tested on: DU-145
PC-3 = tested on: PC-3
Hs-578T = tested on: Hs-578T
NCI/ADR-RES = tested on: NCI/ADR-RES

| SMILES | GI50 (KM12) | GI50 (OVCAR-8) | GI50 (RPMI-8226) | GI50 (SF-539) | GI50 (OVCAR-4) | GI50 (UACC-62) | GI50 (HCT-116) | GI50 (SN12C) | GI50 (A549) | GI50 (HCC 2998) | GI50 (CAKI-1) | GI50 (NCI-H460) | GI50 (K562) | GI50 (HCT-15) | GI50 (TK-10) | GI50 (HOP-92) | GI50 (DU-145) | GI50 (PC-3) | GI50 (Hs-578T) | GI50 (NCI/ADR-RES) |
| --- | --- | --- | --- | --- | --- | --- | --- | --- | --- | --- | --- | --- | --- | --- | --- | --- | --- | --- | --- | --- |
| N#C/C(=C\c1cc(O)cc(O)c1)C(N)=O | 80.5 µM (inactive) | > 100 µM (inactive) | > 100 µM (inactive) | > 100 µM (inactive) | > 100 µM (inactive) | > 100 µM (inactive) | > 100 µM (inactive) | > 100 µM (inactive) | > 100 µM (inactive) | > 100 µM (inactive) | > 100 µM (inactive) | > 100 µM (inactive) | > 100 µM (inactive) | > 100 µM | > 100 µM (inactive) | > 100 µM (inactive) | – | – | – | – |
| COc1ccc(S(=O)(=O)O)cc1NS(=O)(=O)c1ccc(C)cc1 | > 100 µM (inactive) | > 100 µM (inactive) | > 100 µM (inactive) | > 100 µM (inactive) | > 100 µM (inactive) | > 100 µM (inactive) | > 100 µM (inactive) | > 100 µM (inactive) | > 100 µM (inactive) | – | > 100 µM (inactive) | > 100 µM (inactive) | > 100 µM (inactive) | > 100 µM | > 100 µM (inactive) | – | > 100 µM (inactive) | > 100 µM (inactive) | > 100 µM (inactive) | > 100 µM (inactive) |
| CCCCN(CCCC)C(=O)C(=O)CC(=O)c1ccc(Br)cc1 | > 100 µM (inactive) | > 100 µM (inactive) | > 100 µM (inactive) | > 100 µM (inactive) | > 100 µM (inactive) | > 100 µM (inactive) | > 100 µM (inactive) | > 100 µM (inactive) | > 100 µM (inactive) | > 100 µM (inactive) | > 100 µM (inactive) | > 100 µM (inactive) | > 100 µM (inactive) | > 100 µM | > 100 µM (inactive) | > 100 µM (inactive) | – | – | – | – |
| COc1cc2cc(C(=O)N3CC(CCl)c4ccc(O)cc43)[nH]c2c(OC)c1OC (stereo not drawn) | 0.00507 µM (active) | 0.00132 µM (active) | 0.000556 µM (active) | 0.00171 µM (active) | 0.00491 µM (active) | 0.00136 µM (active) | < 0.0001 µM (active) | 0.00441 µM (active) | 0.000501 µM (active) | 0.000593 µM (active) | 0.00218 µM (active) | – | 0.000282 µM (active) | 0.00562 µM | 0.0408 µM (active) | 0.0292 µM (active) | 0.00466 µM (active) | – | 0.016 µM (active) | 0.00162 µM (active) |
| O=C1C=C(N2CCCC2)C(=O)c2c(O)ccc(O)c21 | > 10 µM (inactive) | > 10 µM (inactive) | – | > 10 µM (inactive) | – | 7.28 µM (inactive) | – | > 10 µM (inactive) | > 10 µM (inactive) | > 10 µM (inactive) | – | > 10 µM (inactive) | 2.92 µM (inactive) | > 10 µM | > 10 µM (inactive) | > 10 µM (inactive) | > 10 µM (inactive) | > 10 µM (inactive) | > 10 µM (inactive) | – |
| CC/C=C/C(=O)CC(O)(C(F)(F)F)C(F)(F)F | > 100 µM (inactive) | > 100 µM (inactive) | 54.8 µM (inactive) | > 100 µM (inactive) | > 100 µM (inactive) | > 100 µM (inactive) | > 100 µM (inactive) | > 100 µM (inactive) | > 100 µM (inactive) | > 100 µM (inactive) | – | > 100 µM (inactive) | – | > 100 µM | > 100 µM (inactive) | 32.4 µM (inactive) | > 100 µM (inactive) | – | 19 µM (inactive) | > 100 µM (inactive) |
| c1ccc(CNc2ncnc3nn[nH]c23)cc1 | > 100 µM (inactive) | > 100 µM (inactive) | – | > 100 µM (inactive) | > 100 µM (inactive) | > 100 µM (inactive) | > 100 µM (inactive) | > 100 µM (inactive) | > 100 µM (inactive) | > 100 µM (inactive) | > 100 µM (inactive) | – | > 100 µM (inactive) | > 100 µM | > 100 µM (inactive) | 56.8 µM (inactive) | > 100 µM (inactive) | > 100 µM (inactive) | – | > 100 µM (inactive) |
| CCc1nnc(S)n1/N=C/c1ccc(-c2ccc([N+](=O)[O-])cc2)o1 | > 100 µM (inactive) | > 100 µM (inactive) | > 100 µM (inactive) | > 100 µM (inactive) | > 100 µM (inactive) | > 100 µM (inactive) | > 100 µM (inactive) | > 100 µM (inactive) | > 100 µM (inactive) | > 100 µM (inactive) | > 100 µM (inactive) | > 100 µM (inactive) | > 100 µM (inactive) | > 100 µM | > 100 µM (inactive) | > 100 µM (inactive) | – | – | – | – |
